Test results published in publication PMC7504039, “Tetrapeptide Ac-HAEE-NH2 Protects α4β2 nAChR from Inhibition by Aβ” (International Journal of Molecular Sciences, 2020).
“Also recorded” adds a separate entry of the source. Like-named read-outs stand apart in the source and are kept apart here. Where a SMILES comes first, the peptide text is derived from it.

B1: Ac-RADD-NH2 (peptide)
peptide: Ac-RADD-NH2
B2: Ac-HAEE-NH2 tetrapeptide (peptide)
peptide: Ac-HAEE-NH2

Legend:
[1] = molecular target: T1, immobilized Aβ16 (Homo sapiens, UniProt P05067); test: Direct binding assay: surface plasmon resonance, tetrapeptides over immobilized Aβ16-G4-C; conditions: for Ka × 10^-2 M^-1: 10 mM HEPES pH 6.8, Ka = kon/koff, mean±SD of three independent measurements; for koff: read-out: koff × 10^-3 s^-1
T1 construct: purchased Biopeptide (San Diego, CA, USA); host or cells: chemical synthesis
T1 sequence (P05067 with tags, fused parts or gaps limits assumed): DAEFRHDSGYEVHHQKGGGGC
Description: Surface plasmon resonance (SPR) was utilized to detect the direct binding of the tetrapeptides to immobilized Aβ16-G4-C. All SPR experiments were carried out on a BIAcore T100 instrument (GE Healthcare, IL, USA). Research grade sensor chips CM5 carrying the hydrophilic carboxymethylated dextran matrix, HEPES Buffered Saline (HBS) buffer (10 mM HEPES (4-(2-hydroxyethyl)-1-piperazineethanesulfonic acid)), pH 7.4, 150 mM NaCl, 3 mM EDTA, 0.005% surfactant P20), 1-ethyl-3-(3-dimethylaminopropyl)-carbodiimide (EDC), N-hydroxysuccinimide (NHS), 2-(2-pyridinyldithio)-ethaneamine (PDEA), and cysteine were purchased from Biacore (GE, Boston, MA, USA). All other chemicals and solvents were of HPLC-grade or better and were obtained from MilliporeSigma (St. Louis, MO, USA). All buffers were filtered (0.45 μm, nylon) prior to use.
Attachment of the synthetic peptide Aβ16-G4-C to the CM5 chip was performed according to the thiol bond formation protocol described in the Sensor surface handbook (GE Healthcare, Chicago, IL, USA). The carboxymethyl dextran matrix was activated by injection of a 1:1 mixture of EDC and NHS (30 μL, 400 mM EDC, 100 mM NHS) with the following injection of an 80 mM PDEA solution in 0.1 M sodium borate (pH 8.5). The Aβ16-G4-C solution was then injected into the activated flow cell (0.05 mg/mL peptide in 10 mM sodium acetate buffer, pH 4.5). Unreacted disulfide groups on the CM5 chip surface were capped with a 50 mM cysteine solution in 0.1 M sodium acetate buffer (pH 4.0). The change corresponding to the immobilization of Aβ16-G4-C was 1023 response units (RU). The flow rate used for all immobilization steps was 5 μL/min. An unmodified dextran surface was used as a reference surface.
Then, the binding affinities of the immobilized Aβ16-G4-C to the following peptide-analytes were measured. Samples of Ac-HAEE-NH2 and other tetrapeptides were prepared by dilution of respective stock solutions in the running buffer (10 mM HEPES, pH 6.8). Each analyte was diluted to different concentrations (0 μM, 50 μM, 100 μM, 200 μM, 500 μM, 1000 μM, 1500 μM, 2000 μM) and injected in multichannel mode (volume 50 μL and rate 10 μL/min) during 300 s. Then, the chip surface was exposed to the running buffer without analyte for 120 s. After each injection of the analyte, the surface was regenerated with 5 μL of the regeneration buffer (HBS buffer containing 10 mM HEPES, 3 mM EDTA, 0.005% surfactant P20 and 150 mM NaCl, pH 7.4). The signal from the reference surface was subtracted from the raw data, obtained from the flow cell with the immobilized ligand.
The kinetic rate constants were calculated from the sensorgrams by globally fitting the response curves obtained at various analyte concentrations using the Langmuir model (1:1 binding) in the BIAevaluation 4.1 program. The association (kon) and the dissociation (koff) rate constants were fitted simultaneously (1), dR/dt = kon C (Rmax − R) − koff R(1) where R stands for the biosensor response of the formed complex, C is the concentration of the analyte, and Rmax is the maximal theoretical value of the binding response for a given analyte.
Using the obtained data dissociation (Kd) constant was calculated from the ratios of the association (kon) and dissociation (koff) rate constants: Kd = koff/kon, Ka = kon/koff.

[2] = tested on: rat α4β2 nAChR; test: Two-electrode voltage clamp in Xenopus laevis oocytes expressing α4β2 nAChR; assay type: cell-based; conditions: for effect of washout with the peptide on current amplitude after Aβ42: 3 min, after 10 µM Aβ42
Description: Two-electrode voltage clamp electrophysiology on the α4β2 nAChR expressed in Xenopus laevis oocytes was performed according to previously published protocols [7]. Stage V ± VI Xenopus laevis oocytes were defolliculated with 1 mg/mL collagenase Type I (Life Technologies, Carlsbad, CA, USA) at room temperature (21–24 °C) for 2 h in Barth’s solution without calcium (88.0 mM NaCl, 1.1 mM KCl, 2.4 mM NaHCO3, 0.8 mM MgSO4, 15.0 mM HEPES/NaOH, pH 7.6). The oocytes were stored in Barth’s solution with calcium for 72–120 h (88.0 mM NaCl, 1.1 mM KCl, 2.4 mM NaHCO3, 0.3 mM Ca(NO3)2, 0.4 mM CaCl2, 0.8 mM MgSO4, 15.0 mM HEPES/NaOH, pH 7.6) supplemented with 63.0 μg/mL penicillin-G sodium salt, 40.0 μg/mL streptomycin sulfate.
Oocytes were injected with 3 ng plasmids coding the rat α4 and β2 nAChR subunits (pcDNA3.1 vector) in a molar ratio of 1:1 using an Auto-Nanoliter Injector NanoJect-2 (Drummond Scientific Company, Broomall, PA, USA) in a total injection volume of 23 nL. After injection, oocytes were incubated at 18 °C in Barth’s solution with calcium for 48–120 h. Electrophysiological recordings were made using a Turbo TEC-03X amplifier (npi electronic GmbH, Tamm, Germany) and WinWCP recording software (University of Strathclyde, Glasgow, UK). Oocytes were placed in a small recording chamber with a working volume of 50 μL and 100 μL of agonist (acetylcholine) solution in Barth’s buffer were applied to an oocyte. […] To allow receptor recovery from desensitization, the oocytes were superfused for 5–10 min with buffer (1 mL/min) between ligand applications. Electrophysiological recordings were performed at a holding potential of −60 mV.
Data are presented as means of at least three independent experiments ± SD. The comparison of data groups in electrophysiology studies was performed with ordinary one-way ANOVA. Post-hoc analysis was performed with the Tukey test. Shapiro-Wilk test was used to confirm the normality of the dataset. Statistical analysis was performed using GraphPad Prism 8.4.1 software (GraphPad Software Inc., CA, USA).

[3] = tested on: amyloid load in the brains; design: method as in PMID 26402624; conditions: injections; cited from earlier work
[4] = tested on: Aβ; conditions: previously shown; reference not given; cited from earlier work
[5] = molecular target: Aβ16-G4-C, [Ac]-…-[NH2]; test: SPR; Aβ16-G4-C immobilised by thiol coupling on a CM5 chip (1023 RU), BIAcore T100; tetrapeptides injected at 0-2000 μM, 10 μL/min, 300 s; running buffer 10 mM HEPES, pH 6.8; global fit, Langmuir 1:1 model; Kd = koff/kon
[6] = Table S2, SPR, immobilized Aβ16, 25 °C
[7] = Table S2, SPR, immobilized Aβ16, 25 °C, 10 mM HEPES pH 6.8, mean±SD of three independent measurements, read-out: Kd × 10^4 M
[8] = Table S2, SPR, immobilized Aβ16, 25 °C, 10 mM HEPES pH 6.8, mean±SD of three independent measurements
[9] = Table S2, SPR, immobilized Aβ16, 25 °C, 10 mM HEPES pH 6.8, mean±SD of three independent measurements, read-out: kon × M^-1 s^-1
[10] = SPR, BIAcore T100, Aβ16-G4-C on CM5 chip, running buffer 10 mM HEPES pH 6.8, 1:1 Langmuir global fit, Kd = koff/kon, read-out: dissociation constant Kd
[11] = SPR, immobilized Aβ16, 10 mM HEPES pH 6.8

Molecule | Ka × 10^-2 M^-1 [1, 6] | Kd [1, 7] | koff [1, 8] | kon [1, 9] | further results
CC(=O)N[C@@H](Cc1c[nH]cn1)C(=O)N[C@@H](C)C(=O)N[C@@H](CC(=O)O)C(=O)N[C@@H](CC(=O)O)C(N)=O [#1, Ac-HADD-NH2] (Ac-HADD-NH2) | 3.08±0.08 × 10^-2 M^-1 | 3.25 ± 0.09 mM | 0.0104 ± 2e-05 s⁻¹ | 3.2 ± 0.08 M⁻¹ s⁻¹ | –
CC(=O)N[C@@H](CC(=O)O)C(=O)N[C@@H](CC(=O)O)C(=O)N[C@@H](C)C(=O)N[C@@H](Cc1c[nH]cn1)C(N)=O [#2, Ac-DDAH-NH2] (Ac-DDAH-NH2) | – | – | 0.0154 ± 0.0001 s⁻¹ | 0.52 ± 0.01 M⁻¹ s⁻¹ | Kd ([1]; read-out: Ka × 10^-2 M^-1 (converted)): 2.97 mM
CC(=O)N[C@@H](CC(=O)O)C(=O)N[C@@H](CC(=O)O)C(=O)N[C@@H](C)C(=O)N[C@@H](CCCCN)C(N)=O [#4, Ac-DDAK-NH2] (Ac-DDAK-NH2) | 7.3±0.3 × 10^-2 M^-1 | 1.37 ± 0.05 mM | 0.0062 ± 0.0001 s⁻¹ | 4.57 ± 0.09 M⁻¹ s⁻¹ | –
CC(=O)N[C@@H](CCCCN)C(=O)N[C@@H](C)C(=O)N[C@@H](CCC(=O)O)C(=O)N[C@@H](CC(=O)O)C(N)=O [#9, Ac-KAED-NH2] (Ac-KAED-NH2) | 3.1±0.6 × 10^-2 M^-1 | 3.3 ± 0.7 mM | 0.019 ± 0.001 s⁻¹ | 5.7 ± 0.9 M⁻¹ s⁻¹ | –
CC(=O)N[C@@H](CC(=O)O)C(=O)N[C@@H](CCC(=O)O)C(=O)N[C@@H](C)C(=O)N[C@@H](CCCNC(=N)N)C(N)=O [#12, Ac-DEAR-NH2] (Ac-DEAR-NH2) | 5.1±0.2 × 10^-2 M^-1 | 1.98 ± 0.07 mM | 0.00709 ± 9e-05 s⁻¹ | 3.58 ± 0.08 M⁻¹ s⁻¹ | –
CC(=O)N[C@@H](CCCCN)C(=O)N[C@@H](C)C(=O)N[C@@H](CC(=O)O)C(=O)N[C@@H](CCC(=O)O)C(N)=O [#15, Ac-KADE-NH2] (Ac-KADE-NH2) | 2.2±0.1 × 10^-2 M^-1 | 4.5 ± 0.3 mM | 0.0096 ± 0.0002 s⁻¹ | 2.2 ± 0.1 M⁻¹ s⁻¹ | –
CC(=O)N[C@@H](CCC(=O)O)C(=O)N[C@@H](CC(=O)O)C(=O)N[C@@H](C)C(=O)N[C@@H](CCCCN)C(N)=O [#16, Ac-EDAK-NH2] (Ac-EDAK-NH2) | 0.141±0.009 × 10^-2 M^-1 | – | 0.0097 ± 0.0002 s⁻¹ | 0.136 ± 0.006 M⁻¹ s⁻¹ | –
CC(=O)N[C@@H](CCC(=O)O)C(=O)N[C@@H](CC(=O)O)C(=O)N[C@@H](C)C(=O)N[C@@H](CCCNC(=N)N)C(N)=O [#18, Ac-EDAR-NH2] (Ac-EDAR-NH2) | 0.28±0.03 × 10^-2 M^-1 | – | 0.0047 ± 0.0001 s⁻¹ | 0.13 ± 0.01 M⁻¹ s⁻¹ | –
CC(=O)N[C@@H](Cc1c[nH]cn1)C(=O)N[C@@H](C)C(=O)N[C@@H](CCC(=O)O)C(=O)N[C@@H](CCC(=O)O)C(N)=O [Ac-HAEE-NH2] (Ac-HAEE-NH2) | 110±40 × 10^-2 M^-1 | – | 3.5e-05 ± 8e-06 s⁻¹ | – | Kd [1, 10]: 0.09 mM; kon ([1]; SPR, immobilized Aβ16, 10 mM HEPES pH 6.8, read-out: kon): 0.37 M⁻¹ s⁻¹; effect of washout with the peptide on current amplitude after Aβ42 ([2]; 25 µM in washout buffer, 100 µM ACh): did not affect the current amplitude; effect of washout with the peptide on current amplitude after Aβ42 ([2]; 50 µM in washout buffer, 100 µM ACh): less so at 50 µM; effect on Aβ42-induced inhibition when co-applied with Aβ42 ([2]; 100 µM Ac-HAEE-NH2 (10-times molar excess) with 10 µM Aβ42, 3 min pre-incubation, 100 µM ACh): the degree of inhibition was reduced significantly; also recorded: reduced the inhibitory effect of Aβ42 by half; leakage current after washout with peptide-containing buffer ([2]; 100 µM Ac-HAEE-NH2 washout after 10 µM Aβ42 and buffer washout): reduced the leakage current almost to the control values; effect of washout with the peptide on current amplitude after Aβ42 ([2]; 100 µM in washout buffer, 100 µM ACh): fully revoked the inhibition induced by Aβ42; also recorded: most effective at 100 µM; amplitude of ACh-evoked currents after washout with the peptide (over the range tested) ([2]; 25–100 µM in washout buffer after 10 µM Aβ42, 100 µM ACh): dose-dependently returned to the control levels; also recorded: completely restored the receptor response; effect on ACh-evoked current in the absence of Aβ42 ([2]; α4β2 nAChR-expressing oocytes): did not affect ACh-evoked current; currents induced by the peptide itself ([2]; α4β2 nAChR-expressing oocytes, no ACh): did not induce any currents; amyloid load in the brains of AD model mice [3]: effectively reduce the amyloid load; zinc-dependent oligomerization of Aβ [4]: prevent zinc-dependent oligomerization of Aβ
CC(=O)N[C@@H](CCCNC(=N)N)C(=O)N[C@@H](C)C(=O)N[C@@H](CC(=O)O)C(=O)N[C@@H](CC(=O)O)C(N)=O [Ac-RADD-NH2] (Ac-RADD-NH2) | 800±100 × 10^-2 M^-1 | – | 0.00024 ± 4e-05 s⁻¹ | 18.5 ± 0.1 M⁻¹ s⁻¹ | Kd [1, 10]: 0.013 mM
CC(=O)N[C@@H](CCCNC(=N)N)C(=O)N[C@@H](C)C(=O)N[C@@H](CCC(=O)O)C(=O)N[C@@H](CCC(=O)O)C(N)=O [Ac-RAEE-NH2] (Ac-RAEE-NH2) | 1.3±0.1 × 10^-2 M^-1 | 7.7 ± 0.6 mM | 0.0112 ± 8e-05 s⁻¹ | 1.5 ± 0.1 M⁻¹ s⁻¹ | binding to Aβ16 in the SPR assay (in words) [1, 11]: two orders of magnitude weaker binding than Ac-HAEE-NH2
Ac-KAEE-NH2 | – | – | – | – | binding to Aβ16 in the SPR assay (in words) [1, 11]: no binding was detected at all
B1 | – | – | – | – | Kd [5]: 13 µM
B2 | – | – | – | – | Kd [5]: 90 µM; koff [5]: 4e-05 s⁻¹; kon [5]: 0.37 M⁻¹ s⁻¹
